{
  "source": "patent US20240210412A1",
  "about": "“SULFONYL-TRIAZOLE COMPOUNDS USEFUL AS LIGANDS AND INHIBITORS OF PROSTAGLANDIN REDUCTASE 2” (University of Virginia Patent Foundation, priority 2021, published 2024)",
  "test_in_all_cases": "SILAC LC-MS ABPP",
  "assay_type_in_all_cases": "cell-based",
  "conditions_in_all_cases": "25 μM 2 h, live DM93 cells",
  "key": {"[1]": {"target": "T1, Q93052 (Homo sapiens, UniProt Q93052)", "T1 construct": "endogenous in cells; host or cells: DM93 cells (SILAC), live-cell treatment", "T1 sequence (Q93052 1-612)": "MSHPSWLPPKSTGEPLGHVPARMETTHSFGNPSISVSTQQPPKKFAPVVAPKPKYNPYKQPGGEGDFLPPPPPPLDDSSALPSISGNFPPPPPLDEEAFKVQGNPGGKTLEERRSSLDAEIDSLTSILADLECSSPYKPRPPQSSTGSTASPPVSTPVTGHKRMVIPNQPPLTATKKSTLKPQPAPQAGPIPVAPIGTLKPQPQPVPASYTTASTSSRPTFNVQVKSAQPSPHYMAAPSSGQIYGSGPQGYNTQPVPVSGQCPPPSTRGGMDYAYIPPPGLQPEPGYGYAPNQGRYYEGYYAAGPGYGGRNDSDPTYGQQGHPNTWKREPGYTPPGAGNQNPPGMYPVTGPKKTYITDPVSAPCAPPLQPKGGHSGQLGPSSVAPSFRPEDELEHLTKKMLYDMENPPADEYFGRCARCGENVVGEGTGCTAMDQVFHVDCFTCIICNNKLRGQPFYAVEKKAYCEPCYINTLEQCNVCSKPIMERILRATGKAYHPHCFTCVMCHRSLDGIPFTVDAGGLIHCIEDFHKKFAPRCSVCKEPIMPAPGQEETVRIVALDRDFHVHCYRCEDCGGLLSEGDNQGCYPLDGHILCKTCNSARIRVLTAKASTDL", "experimental": "(§1) Cells were grown to 90-95% confluence before being washed once with warm, sterile DPBS (1×, 5 mL), followed by addition of 10 mL of serum-free media (supplemented with 1% L-glutamine) containing either DMSO or SuTEx fragment (in DMSO) was added. Light cells were treated with DMSO vehicle while the heavy cells were treated with DMSO or SuTEx fragment (in DMSO) and incubated for 2 hrs. After 2 hrs, the cells were treated with SuTEx alkyne probe (HHS475, 10 μL of 1000× DMSO stock) and incubated for an additional 2 hrs. The media was aspirated and cells washed with cold PBS (5 mL) and harvested. Cells were spun at 500×g for 5 min at 4° C. followed by removal of supernatant. Pellets were resuspended in 1 mL of cold DPBS and spun at 1,400×g for 3 min at 4° C. followed by removal of supernatant. The cells were lysed in PBS by sonication and fractionated (100,000×g, 45 min, 4° C.).The light and heavy soluble fractions were diluted to 2.3 mg/mL in PBS and 432 μL were used for analysis (1 mg total protein). The probe-modified proteomes were conjugated to desthiobiotin-PEG3-azide (10 μl of 10 mM stock in DMSO; 200 μM final concentration) using TCEP (10 μl of fresh 50 mM stock in water, 1 mM final concentration), TBTA ligand (33 μl of a 1.7 mM 4:1 t-butanol/DMSO stock, 100 μM final concentration) and CuSO4 (10 μl of 50 mM stock, 1 mM final concentration). Samples were vortexed to mix and incubated for 1 hr at room temperature. The heavy and light proteomes were mixed 1:1 and the subsequent steps, including LC-MS/MS data analysis, were performed as previously described^[8a].\n(§2) Coupling cell-based screens with chemical proteomics can facilitate the identification of target protein and binding sites that engage and are irreversibly modified by covalent ligands^[12]. In these assays, covalent ligands block SuTEx activity-based probe (ABP) labeling at protein sites, and the competition of probe labeling can be used to quantify potency and selectivity across the proteome^[10a]. To facilitate quantitative chemical proteomics, DM93 melanoma cells were cultured using stable isotopic labeling by amino acids in cell culture (SILAC)^[13]. Cells cultured in “light” media were treated with dimethyl sulfoxide (DMSO) vehicle while cells cultured in “heavy” media were treated with SuTEx ligand (25 μM, 2 hours, 37° C.). Next, cells were treated with HHS-475 probe (100 μM, 2 hours, 37° C.) followed by lysis and processing of proteomes for analysis. Probe-modified proteins from the soluble fraction were conjugated to a desthiobiotin-azide tag by copper-catalyzed azide-alkyne cycloaddition (CuAAC)^[14] followed by mixing of the light and heavy proteomes. The combined proteomes were digested with trypsin protease to produce probe-modified peptides, followed by enrichment and purification by avidin affinity chromatography. Probe-modified peptides were resolved, identified, and quantified by high-resolution liquid chromatography-tandem mass spectrometry (LC-MS/MS). Resultant data were analyzed as previously described^[8a, 10a]. Table 2, below, lists sites of modification targeted by sulfonyl-triazole compounds HHS-0101, HHS-0201, HHS-0301, HHS-0401, and HHS-0701. The format of the table is as follows: protein Uniprot accession number (see uniprot.org); tyrosine site (amino acid position) modified; treatment (sulfonyl-triazole compound identification number, followed by Y (where if multiple compounds modify the same site, the compounds are separated by vertical lines)."}, "[2]": {"target": "T2, Q96AE4 (Homo sapiens, UniProt Q96AE4)", "T2 construct": "endogenous in cells; host or cells: DM93 cells (SILAC), treated live; soluble proteome analysed", "T2 sequence (Q96AE4 whole entry)": "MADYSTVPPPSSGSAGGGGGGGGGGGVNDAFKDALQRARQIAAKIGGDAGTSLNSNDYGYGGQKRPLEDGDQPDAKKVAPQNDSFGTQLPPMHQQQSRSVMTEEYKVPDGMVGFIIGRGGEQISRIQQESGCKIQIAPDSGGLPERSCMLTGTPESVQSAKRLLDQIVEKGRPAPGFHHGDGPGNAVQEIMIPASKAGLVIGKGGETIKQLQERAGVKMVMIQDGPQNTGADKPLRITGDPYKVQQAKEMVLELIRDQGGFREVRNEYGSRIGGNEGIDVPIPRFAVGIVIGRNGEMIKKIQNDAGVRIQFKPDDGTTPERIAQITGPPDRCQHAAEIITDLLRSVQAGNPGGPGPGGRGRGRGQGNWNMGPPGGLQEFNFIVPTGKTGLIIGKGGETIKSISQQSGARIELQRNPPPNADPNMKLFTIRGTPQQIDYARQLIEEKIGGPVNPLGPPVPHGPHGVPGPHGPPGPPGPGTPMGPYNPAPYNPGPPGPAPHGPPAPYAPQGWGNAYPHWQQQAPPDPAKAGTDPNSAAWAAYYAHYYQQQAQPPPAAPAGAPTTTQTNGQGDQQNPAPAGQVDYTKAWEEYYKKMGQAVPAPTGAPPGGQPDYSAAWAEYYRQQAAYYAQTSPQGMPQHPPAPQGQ", "experimental": "as §1, §2"}, "[3]": {"target": "T3, P25205 (Homo sapiens, UniProt P25205)", "T3 construct": "Probe-modified proteins from the soluble fraction were conjugated to a desthiobiotin-azide tag; endogenous in cells; host or cells: DM93 (SILAC)", "T3 sequence (P25205 1-808)": "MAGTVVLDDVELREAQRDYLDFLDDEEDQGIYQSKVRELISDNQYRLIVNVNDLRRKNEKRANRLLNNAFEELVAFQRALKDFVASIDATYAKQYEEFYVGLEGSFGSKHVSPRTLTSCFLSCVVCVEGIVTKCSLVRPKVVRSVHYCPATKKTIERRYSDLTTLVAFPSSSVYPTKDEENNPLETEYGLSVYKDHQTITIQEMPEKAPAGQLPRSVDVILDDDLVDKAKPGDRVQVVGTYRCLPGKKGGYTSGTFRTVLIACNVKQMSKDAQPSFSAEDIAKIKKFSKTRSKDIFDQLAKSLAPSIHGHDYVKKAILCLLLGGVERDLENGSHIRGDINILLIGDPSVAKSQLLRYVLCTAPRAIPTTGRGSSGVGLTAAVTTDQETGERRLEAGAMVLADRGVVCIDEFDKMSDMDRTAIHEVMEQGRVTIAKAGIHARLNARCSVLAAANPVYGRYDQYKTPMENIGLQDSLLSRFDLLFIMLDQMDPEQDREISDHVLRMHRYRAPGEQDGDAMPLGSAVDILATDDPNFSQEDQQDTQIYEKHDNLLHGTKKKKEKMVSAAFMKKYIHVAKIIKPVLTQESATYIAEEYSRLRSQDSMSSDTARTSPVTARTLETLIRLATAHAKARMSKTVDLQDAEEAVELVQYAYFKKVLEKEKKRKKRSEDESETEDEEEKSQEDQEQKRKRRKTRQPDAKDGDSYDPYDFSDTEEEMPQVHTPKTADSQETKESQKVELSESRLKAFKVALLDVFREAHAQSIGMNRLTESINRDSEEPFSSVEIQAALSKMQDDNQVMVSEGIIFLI", "experimental": "as §1, §2"}},
  "data": [
    {"smiles": "O=C(NC1CC1)c1ccc(S(=O)(=O)n2cncn2)cc1", "note": "[HHS-0101, 4-((1H-1,2,4-triazol-1-yl)sulfonyl)-N-cyclopropylbenzamide]", "values": [
      {"measurement": "liganded tyrosine site 251", "setting": "[1]", "result": "HHS0101.Y|HHS0401.Y (tyrosine sites that showed >80% reductions (SR >5) in probe labeling in cells treated with compounds (liganded sites))"},
      {"measurement": "liganded tyrosine site 332", "setting": "[1]", "result": "HHS0101.Y (tyrosine sites that showed >80% reductions (SR >5) in probe labeling in cells treated with compounds (liganded sites))"},
      {"measurement": "liganded tyrosine site 438", "setting": "[2]", "result": "HHS0101.Y (tyrosine sites that showed >80% reductions (SR >5) in probe labeling in cells treated with compounds (liganded sites))"}
    ]},
    {"smiles": "O=C(NC1CCCCC1)c1ccc(S(=O)(=O)n2cncn2)cc1", "note": "[HHS-0301, 4-((1H-1,2,4-triazol-1-yl)sulfonyl)-N-cyclohexylbenzamide]", "values": [
      {"measurement": "liganded tyrosine site 147", "setting": "[3]", "result": "HHS0301.Y (tyrosine sites that showed >80% reductions (SR >5) in probe labeling in cells treated with compounds (liganded sites))"},
      {"measurement": "liganded tyrosine site 234", "setting": "[1]", "result": "HHS0301.Y|HHS0401.Y (tyrosine sites that showed >80% reductions (SR >5) in probe labeling in cells treated with compounds (liganded sites))"}
    ]},
    {"smiles": "O=C(c1ccc(S(=O)(=O)n2cncn2)cc1)N1CCC(c2ccccc2)CC1", "note": "[HHS-0701, (4-((1H-1,2,4-triazol-1-yl)sulfonyl)phenyl)(4-phenylpiperidin-1-yl)methanone]", "values": [
      {"measurement": "liganded tyrosine site 159", "setting": "[3]", "result": "HHS0701.Y (tyrosine sites that showed >80% reductions (SR >5) in probe labeling in cells treated with compounds (liganded sites))"},
      {"measurement": "liganded tyrosine site 188", "setting": "[3]", "result": "HHS0701.Y (tyrosine sites that showed >80% reductions (SR >5) in probe labeling in cells treated with compounds (liganded sites))"},
      {"measurement": "liganded tyrosine site 619", "setting": "[2]", "result": "HHS0701.Y (tyrosine sites that showed >80% reductions (SR >5) in probe labeling in cells treated with compounds (liganded sites))"}
    ]}
  ]
}
